Experimental findings from paper PMC9322052, “Synthesis and Biological Activity Screening of Newly Synthesized Trimethoxyphenyl-Based Analogues as Potential Anticancer Agents” (Molecules, 2022) are described below.

For assay [1], the system named is HepG2 cells. Briefly: Annexin V-FITC/PI dual staining apoptosis assay. It counts as cell-based, human. How it is done: The extent of apoptosis induced by compound 9 in HepG2 cells was quantified by the FACS analysis. Cells were harvested after 48 h and analyzed for apoptosis percentage by flow cytometry.
[…] analysis in HepG2 cells was carried out by FACS analysis according to the manufacturer’s directions. See Section 3.3.4 in Supplementary Material.
Figure 4 Compound 9 induces apoptosis in HepG2 cells. (A) HepG2 cells were treated with 1.38 μM of compound 9 for 48 h. Cell apoptosis was quantized by Annexin V-FITC/PI dual staining assay using image-based cytometry. (B) The quantification of HepG2 cell apoptosis.
3.3.1. Cytotoxic activity evaluation
To measure the cytotoxic activity of the synthesized derivatives 2a-11 in hepatocel-lular carcinoma (HepG2) cell line (ATCC Cat No. HB-8065) as well as normal human liver cell line HL-7702 (ATCC Cat. No. 77402), cell viability assay was assessed using MTT assay method. Cells at density of 1 x 104 were seeded in a 96-well plate at 37 °C for 24 h under 5% CO2. […] The color inten-sity of the formazan product, which represents the growth condition of the cells, is quan-tified by using an ELISA plate reader (EXL 800, USA) at 570 nm absorbance. […]
Compounds 9, 10 and 11 were evaluated for their tubulin inhibitory activity levels according to the manufacturer’s instructions using # abcam Human Beta-tubulin simplestep […]
Cell cycle analysis in HepG2 cells was investigated using fluorescent Annexin V-FITC/ PI detection kit (BioVision EZCellTM Cell Cycle Analysis Kit Catalog #K920) by flow cytometry assay. […] The samples were immediately analyzed using Facs Calibur flow cytometer (Becton and Dickinson, Heidelberg, Germany). […]
Apoptosis in HepG2 cells was investigated using fluorescent Annexin V-FITC/ PI de-tection kit (BioVision Annexin V-FITC Apoptosis Detection Kit, Catalog #: K101) by flow cy-tometry assay. […] The samples were immediately analyzed using FACS Calibur flow cytometer (Becton and Dickinson, Heidelberg, Germany).
3.3.5. […] The samples were immediately analyzed using cell […]

The subject of assay [2] is β-tubulin. Briefly: Tubulin polymerization inhibition (beta-tubulin ELISA in HepG2 cells). Format: cell-based, human. The conditions noted are these: HepG2 cells, each compound at its IC50 concentration (9 1.38, 10 2.52, 11 3.21, podo 2.08 μM), ELISA. Here is the method:
The selected candidates were tested at a concentration equal to their IC50 concentration dose value. […] See Section 3.3.2 in Supplementary Material. […] page 18: 3.3. Biological studies 3.3.1. Cytotoxic activity evaluation To measure the cytotoxic activity of the synthesized derivatives 2a-11 in hepatocel- lular carcinoma (HepG2) cell line (ATCC Cat No. HB-8065) as well as normal human liver cell line HL-7702 (ATCC Cat. No. 77402), cell viability assay was assessed using MTT assay method. Cells at density of 1 x 104 were seeded in a 96-well plate at 37 °C for 24 h under 5% CO2. After incubation, the cells were treated with different concentrations of the test compounds 2a-11 and incubated for 24 h, then 20 μl of MTT solution at 5 mg/mL was […] Dimethyl sulphoxide (DMSO) in volume of 100 μl was added to each well to dissolve the purple formazan that had formed. The color […] of the formazan product, which represents the growth condition of the cells, is quan- […] by using an ELISA plate reader (EXL 800, USA) at 570 nm absorbance. The experi- mental conditions were carried out with at least three replicates, and the experiments were repeated at least three times. 3.3.2. Tubulin inhibitions Assay […] according to the manufacturer's instructions using # abcam Human Beta-tubulin […] ELISA Kit ab245722. 3.3.3. Cell cycle analysis of compound 9 Cell cycle analysis in HepG2 cells was investigated using fluorescent Annexin V- FITC/ PI detection kit (BioVision EZCellTM Cell Cycle Analysis Kit Catalog #K920) by flow cytometry assay. […] twice in PBS. After that, the cells were incubated at 37 °C and 5% CO2. […] Apoptosis assay for compound 9 Apoptosis in HepG2 cells was investigated using fluorescent Annexin V-FITC/ PI de- tection kit (BioVision Annexin V-FITC Apoptosis Detection Kit, Catalog #: K101) by flow cy- tometry assay. […] The samples were immediately analyzed using FACS Calibur flow cytometer (Becton and Dickinson, Heidelberg, Germany). 3.3.5. Measurement of mitochondrial membrane potential (MMP) for compound 9 MMP was measured by FACS analysis using abcam ab113852TMRE Mitochondrial Membrane Potential Assay Kit with DiOC2(3) staining using MitoProbeTM DiOC2(3) Assay Kit for Flow Cytometry (M34150). After treatment with compound 9 at its IC50 concentra- tion, cells were stained with DiOC2(3) dye for 30 min in the incubator, then harvested and washed with PBS. […] The samples were immediately analyzed using cell Quest software. […] Effect on p53, Bax and Bcl-2 p53, Bax and Bcl2 enzyme activities in HepG2 cells were detected in the presence of com- pound 9 at its IC50 concentration (μM). The levels of the tumor suppressor gene p53, apoptotic markers Bax as well as the anti-apoptotic marker Bcl-2 were assessed using p53 ELISA kit, Human Bax ELISA kit and Bcl-2 Elisa kit. […]

Setting [3] is: HepG2, IC50 concentration, 48 h.

Molecules are shown by their SMILES.

Take `COc1ccc(C2=N/C(=C\c3cc(OC)c(OC)c(OC)c3)C(=O)NN2c2ccccc2)cc1OC` [Compound 9, (Z)-3-(3,4-Dimethoxyphenyl)-2-Phenyl-5-(3,4,5-Trimethoxybenzylidene)-1,2-Dihydro-1,2,4-Triazin-6(5H)-one]: the “increase in Annexin-V-positive cells compared with untreated control” value in assay [1] (HepG2) is reported as ~18 fold. In assay [1] (setting [3]), the “increase in percentage of early apoptosis compared with untreated control” value is listed as 16.63 fold and the “increase in percentage of late apoptosis compared with untreated control” value worked out at 60.11 fold. Moreover, in assay [2], the “β-tubulin polymerization inhibition percentage” value is on record as 86.73%.
